Test results taken from article PMC11240139, “Exploring the antitumor potential of novel quinoline derivatives via tubulin polymerization inhibition in breast cancer; design, synthesis and molecular docking” (RSC Advances, 2024).

Key:
[1] = test system: NCI-H322M (non-small cell lung cancer); assay: NCI-60 SRB cytotoxicity screen; type: cell-based; details: Homo sapiens, single dose 10 μM, read-out: growth inhibition (GI%)
MCF7 (breast cancer) = assay: NCI-60 SRB cytotoxicity screen; type: cell-based; details: Homo sapiens; MCF7, single dose 10 μM; read-out: growth inhibition (GI%)
OVCAR-4 (ovarian cancer) = assay: NCI-60 SRB cytotoxicity screen; type: cell-based; details: Homo sapiens; OVCAR-4, single dose 10 μM; read-out: growth inhibition (GI%)
CAKI-1 (renal cancer) = assay: NCI-60 SRB cytotoxicity screen; type: cell-based; details: Homo sapiens; CAKI-1, single dose 10 μM; read-out: growth inhibition (GI%)
SF-539 (CNS cancer) = assay: NCI-60 SRB cytotoxicity screen; type: cell-based; details: Homo sapiens; SF-539, single dose 10 μM; read-out: growth inhibition (GI%)
HCT-15 (colon cancer) = assay: NCI-60 SRB cytotoxicity screen; type: cell-based; details: Homo sapiens; HCT-15, single dose 10 μM; read-out: growth inhibition (GI%)
[2] = test system: EKVX (non-small cell lung cancer); assay: NCI-60 SRB cytotoxicity screen; type: cell-based; details: Homo sapiens, single dose 10 μM, read-out: growth inhibition (GI%)
HT29 (colon cancer) = assay: NCI-60 SRB cytotoxicity screen; type: cell-based; details: Homo sapiens, HT-29; HT29, single dose 10 μM; read-out: growth inhibition (GI%)
SK-OV-3 (ovarian cancer) = assay: NCI-60 SRB cytotoxicity screen; type: cell-based; details: Homo sapiens; SK-OV-3, single dose 10 μM; read-out: growth inhibition (GI%)
SK-MEL-28 (melanoma) = assay: NCI-60 SRB cytotoxicity screen; type: cell-based; details: Homo sapiens; SK-MEL-28, single dose 10 μM; read-out: growth inhibition (GI%)
A498 (renal cancer) = assay: NCI-60 SRB cytotoxicity screen; type: cell-based; details: Homo sapiens; A498, single dose 10 μM; read-out: growth inhibition (GI%)
HCT-116 (colon cancer) = assay: NCI-60 SRB cytotoxicity screen; type: cell-based; details: Homo sapiens; HCT-116, single dose 10 μM; read-out: growth inhibition (GI%)
TK-10 (renal cancer) = assay: NCI-60 SRB cytotoxicity screen; type: cell-based; details: Homo sapiens; TK-10, single dose 10 μM; read-out: growth inhibition (GI%)
T-47D (breast cancer) = assay: NCI-60 SRB cytotoxicity screen; type: cell-based; details: Homo sapiens, T47D, single dose 10 μM, read-out: growth inhibition (GI%)
DU-145 (prostate cancer) = assay: NCI-60 SRB cytotoxicity screen; type: cell-based; details: Homo sapiens; DU-145, single dose 10 μM; read-out: growth inhibition (GI%)
HL-60(TB) (leukemia) = assay: NCI-60 SRB cytotoxicity screen; type: cell-based; details: Homo sapiens, single dose 10 μM, read-out: growth inhibition (GI%)
PC-3 (prostate cancer) = assay: NCI-60 SRB cytotoxicity screen; type: cell-based; details: PC-3, single dose 10 μM; read-out: growth inhibition (GI%)
KM12 (colon cancer) = assay: NCI-60 SRB cytotoxicity screen; type: cell-based; details: Homo sapiens; KM12, single dose 10 μM; read-out: growth inhibition (GI%)
IGROV1 (ovarian cancer) = assay: NCI-60 SRB cytotoxicity screen; type: cell-based; details: Homo sapiens, IGROV-1; IGROV1, single dose 10 μM; read-out: growth inhibition (GI%)
UACC-257 (melanoma) = assay: NCI-60 SRB cytotoxicity screen; type: cell-based; details: Homo sapiens; UACC-257, single dose 10 μM; read-out: growth inhibition (GI%)
[3] = test system: NCI-H23 (non-small cell lung cancer); assay: NCI-60 SRB cytotoxicity screen; type: cell-based; details: Homo sapiens; NCI-H23, single dose 10 μM; read-out: growth inhibition (GI%)
UO-31 (renal cancer) = assay: NCI-60 SRB cytotoxicity screen; type: cell-based; details: Homo sapiens; UO-31, single dose 10 μM; read-out: growth inhibition (GI%)
[4] = test system: MDA-MB-468 (breast cancer); assay: NCI-60 SRB cytotoxicity screen; type: cell-based; details: Homo sapiens; MDA-MB-468, single dose 10 μM; read-out: growth inhibition (GI%)
Experimental: The cytotoxic activity of the synthesized quinoline derivatives was determined by the national cancer institute (NCI, Bethesda, Maryland, USA) against 60 different cancer cell lines at a single high dose (10^−5 M) in the full NCI 60 cell panel using the sulforhodamine B assay for cell viability evaluation. In summary, 5 × 10^3 cells were in 96-well plate and incubated in complete media for 24 h. Cells were treated with 100 μL of media containing each newly synthesized compound. After drug exposure, cells were fixed by replacing media with 150 μL of 10% TCA and incubated at 4 °C for 1 h. The TCA solution was removed, and the cells were washed 5 times with distilled water. Aliquots of 70 μL SRB solution (0.4% w/v) were added and incubated in a dark place at room temperature for 10 min. The plates were washed 3 times with 1% acetic acid and allowed to air-dry overnight. Then, 150 μL of TRIS (10 mM) was added to dissolve protein-bound SRB stain. The absorbance was measured at 540 nm.% Cytotoxicity = [1 − (AVx/AVNC)] × 100where AVx denotes the average absorbance of the sample well and AVNC denotes the average absorbance of the negative control.
The methodology of the NCI anticancer screening has been described in details at (http://www.dtp.nci.nih.gov). The anticancer assay was performed in full NCI 60 cell lines derived from nine tumor subpanels, including leukemia, lung, colon, CNS, melanoma, ovarian, renal, prostate, and breast cancer cell lines.
The cell lines were first cultured for 48 h, after being exposed to a single dosage of the compound. Using the protein-binding dye sulforhodamine B dye, cell proliferation and viability were evaluated (SRB assay). The results were presented for each chemical as GI%. Compound that met NCI criteria for substantial activity were further evaluated using a five-dose experiment. The NCI60 cell lines were treated with the chemicals in this assay at five different concentration levels (0.01, 0.1, 1, 10, and 100 μM).

UACC-62 (melanoma) = assay: NCI-60 SRB cytotoxicity screen; type: cell-based; details: Homo sapiens; UACC-62, single dose 10 μM; read-out: growth inhibition (GI%)
[5] = test system: NCI-H460 (non-small cell lung cancer); assay: NCI-60 SRB cytotoxicity screen; type: cell-based; details: Homo sapiens; NCI-H460, single dose 10 μM; read-out: growth inhibition (GI%)
SR (leukemia) = assay: NCI-60 SRB cytotoxicity screen; type: cell-based; details: single dose 10 μM, read-out: growth inhibition (GI%)

| SMILES | inhibition at 10 µM [1] [%] | inhibition at 10 µM (MCF7 (breast cancer)) [%] | inhibition at 10 µM (OVCAR-4 (ovarian cancer)) [%] | inhibition at 10 µM (CAKI-1 (renal cancer)) [%] | inhibition at 10 µM (SF-539 (CNS cancer)) [%] | inhibition at 10 µM (HCT-15 (colon cancer)) [%] | inhibition at 10 µM [2] [%] | inhibition at 10 µM (SK-OV-3 (ovarian cancer)) [%] | inhibition at 10 µM (HCT-116 (colon cancer)) [%] | inhibition at 10 µM (TK-10 (renal cancer)) [%] | inhibition at 10 µM (T-47D (breast cancer)) [%] | inhibition at 10 µM (HL-60(TB) (leukemia)) [%] | inhibition at 10 µM (PC-3 (prostate cancer)) [%] | inhibition at 10 µM (KM12 (colon cancer)) [%] | inhibition at 10 µM (IGROV1 (ovarian cancer)) [%] | inhibition at 10 µM (UACC-257 (melanoma)) [%] | melting point [°C] | inhibition at 10 µM [3] [%] | inhibition at 10 µM (UO-31 (renal cancer)) [%] | inhibition at 10 µM [4] [%] | also measured |
| --- | --- | --- | --- | --- | --- | --- | --- | --- | --- | --- | --- | --- | --- | --- | --- | --- | --- | --- | --- | --- | --- |
| CCc1cccc2cc(C=CC(=O)c3ccc(Br)cc3)c(Cl)nc12 [Compound 3e, 1-(4-Bromophenyl)-3-(2-chloro-8-ethylquinolin-3-yl)prop-2-en-1-one] | < 10 | < 10 | < 10 | 12.8 | < 10 | < 10 | < 10 | < 10 | < 10 | < 10 | < 10 | < 10 | < 10 | < 10 | < 10 | < 10 | 210 to 212 | < 10 | < 10 | < 10 | inhibition at 10 µM (HT29 (colon cancer)): < 10%; inhibition at 10 µM (SK-MEL-28 (melanoma)): < 10%; inhibition at 10 µM (A498 (renal cancer)): < 10%; inhibition at 10 µM (DU-145 (prostate cancer)): < 10%; inhibition at 10 µM (UACC-62 (melanoma)): < 10%; inhibition at 10 µM [5]: < 10% |
| CCc1cccc2cc(-c3cc(-c4ccc(OC)c(OC)c4)[nH]c(=S)c3C#N)c(Cl)nc12 [Compound 5b, 4-(2-Chloro-8-ethylquinolin-3-yl)-6-(3,4-dimethoxyphenyl)-2-thioxo-1,2-dihydropyridine-3-carbonitrile] | < 10 | 26.6 | 22.4 | 45.8 | 22 | 12.2 | 23.9 | < 10 | < 10 | < 10 | 41.1 | < 10 | 21.3 | 19.9 | < 10 | < 10 | 280 to 282 | 20.3 | 23.3 | 22.8 | inhibition at 10 µM (SK-MEL-28 (melanoma)): < 10%; inhibition at 10 µM (DU-145 (prostate cancer)): 20.2%; inhibition at 10 µM (SR (leukemia)): < 10%; inhibition at 10 µM (UACC-62 (melanoma)): 19.1%; inhibition at 10 µM [5]: < 10% |
| CCc1cccc2cc(-c3cc(-c4ccc(F)cc4)[nH]c(=S)c3C#N)c(Cl)nc12 [Compound 5d, 4-(2-Chloro-8-ethylquinolin-3-yl)-6-(4-fluorophenyl)-2-thioxo-1,2-dihydropyridine-3-carbonitrile] | 12.4 | 40.4 | 13.3 | 31.1 | < 10 | 14.8 | 19.6 | 20.9 | < 10 | < 10 | 21.1 | < 10 | 4.57 | < 10 | 28.6 | < 10 | 235 to 237 | 16.4 | 40.1 | 14 | inhibition at 10 µM (HT29 (colon cancer)): < 10%; inhibition at 10 µM (SK-MEL-28 (melanoma)): < 10%; inhibition at 10 µM (A498 (renal cancer)): < 10%; inhibition at 10 µM (UACC-62 (melanoma)): 25.7%; inhibition at 10 µM [5]: < 10% |
| CCc1cccc2cc(C3C=C(c4ccc(OC)c(OC)c4)NC(=S)N3)c(Cl)nc12 (stereo not shown) [Compound 6b, 4-(2-Chloro-8-ethylquinolin-3-yl)-6-(3,4-dimethoxyphenyl)-3,4-dihydropyrimidine-2(1H)-thione] | < 10 | 15.7 | 19.9 | 30.2 | < 10 | < 10 | < 10 | < 10 | 17.2 | < 10 | 24.9 | 10.7 | < 10 | < 10 | < 10 | < 10 | 237 to 239 | < 10 | 37.2 | 13.2 | inhibition at 10 µM (HT29 (colon cancer)): < 10%; inhibition at 10 µM (SK-MEL-28 (melanoma)): < 10%; inhibition at 10 µM (A498 (renal cancer)): < 10%; inhibition at 10 µM (DU-145 (prostate cancer)): < 10%; inhibition at 10 µM (UACC-62 (melanoma)): 10.3%; inhibition at 10 µM [5]: < 10% |
| CCc1cccc2cc(C3C=C(c4cc(OC)c(OC)c(OC)c4)NC(=S)N3)c(Cl)nc12 (stereo not shown) [Compound 6c, 4-(2-Chloro-8-ethylquinolin-3-yl)-6-(3,4,5-trimethoxyphenyl)-3,4-dihydropyrimidine-2(1H)-thione] | 18.3 | 44.3 | 48.9 | 64.1 | 30.3 | 30.9 | 37.9 | < 10 | 41.2 | 12.6 | 48.6 | 41.5 | 46.2 | 28.1 | 14.3 | 13.1 | 235 to 237 | 25.8 | 67.7 | 40.5 | inhibition at 10 µM (HT29 (colon cancer)): 36.4%; inhibition at 10 µM (A498 (renal cancer)): 11.6%; inhibition at 10 µM (DU-145 (prostate cancer)): 21.7%; inhibition at 10 µM (UACC-62 (melanoma)): 35.5%; inhibition at 10 µM [5]: 30% |
